Each block holds one compound with its values, some of them ahead of it. Numbered stars: 1 amine (or outer) side, 2 acyl side, 3 side chain; on linkers, the order of the positions; unused ones are H or OH. Bridge positions count the residues as written; N and C are the ends. Peptide text beside a SMILES is read from it. TBMB = c1c(C[*:1])cc(C[*:3])cc1C[*:2]
Experiments:
80S Ribosome = test: Inhibition of human 80S ribosome-mediated PCSK9 translation expressed in CHO-K1 cells assessed as reduction in PCSK9 secretion; format: cell-based
Homo sapiens [1] = species: Homo sapiens; test: Selectivity ratio of Ki for human MC2R expressed in HEK cell membranes to Ki for human MC4R expressed in HEK cell membranes; format: cell-based
Homo sapiens [2] = species: Homo sapiens; test: Selectivity ratio of Ki for human MC1R expressed in HEK cell membranes to Ki for human MC4R expressed in HEK cell membranes; format: cell-based
Homo sapiens [3] = species: Homo sapiens; test: Selectivity ratio of Ki for human MC5R expressed in HEK cell membranes to Ki for human MC4R expressed in HEK cell membranes; format: cell-based
[4] = molecular target: T1, Epidermal growth factor receptor substrate 15 (Homo sapiens, UniProt P42566); test: Inhibition of stonin-2 binding to Eps15 (unknown origin)
T1 sequence (P42566 whole entry): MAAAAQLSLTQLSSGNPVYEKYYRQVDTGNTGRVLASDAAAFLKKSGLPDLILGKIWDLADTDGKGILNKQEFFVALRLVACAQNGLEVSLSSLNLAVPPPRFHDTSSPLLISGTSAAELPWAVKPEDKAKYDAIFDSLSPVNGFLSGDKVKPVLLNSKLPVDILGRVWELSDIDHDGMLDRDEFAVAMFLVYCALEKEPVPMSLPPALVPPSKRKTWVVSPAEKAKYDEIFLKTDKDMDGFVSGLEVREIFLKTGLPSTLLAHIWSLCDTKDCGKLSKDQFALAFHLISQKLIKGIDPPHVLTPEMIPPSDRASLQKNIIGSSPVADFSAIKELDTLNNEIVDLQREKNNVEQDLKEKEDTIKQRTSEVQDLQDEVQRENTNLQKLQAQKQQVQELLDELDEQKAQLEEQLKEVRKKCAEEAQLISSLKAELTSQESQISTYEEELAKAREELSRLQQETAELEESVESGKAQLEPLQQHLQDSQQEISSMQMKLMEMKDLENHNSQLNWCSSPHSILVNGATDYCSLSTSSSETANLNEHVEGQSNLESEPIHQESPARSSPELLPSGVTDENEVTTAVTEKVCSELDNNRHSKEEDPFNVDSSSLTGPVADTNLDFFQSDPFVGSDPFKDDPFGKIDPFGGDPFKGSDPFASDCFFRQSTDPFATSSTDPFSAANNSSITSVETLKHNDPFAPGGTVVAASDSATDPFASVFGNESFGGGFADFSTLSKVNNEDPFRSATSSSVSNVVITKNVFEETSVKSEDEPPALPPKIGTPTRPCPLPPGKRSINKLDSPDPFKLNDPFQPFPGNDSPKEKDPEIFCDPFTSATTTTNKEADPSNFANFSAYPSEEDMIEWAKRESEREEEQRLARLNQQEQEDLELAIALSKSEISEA

[5] = Modulation of full length SMN2 mRNA (unknown origin) splicing by luciferase reporter gene assay; set-up: species or system Homo sapiens
Plasma kallikrein = Plasma kallikrein (Homo sapiens, UniProt P03952); test: Binding affinity to human plasma kallikrein
Chain of Plasma kallikrein (P03952 20-390 limits assumed): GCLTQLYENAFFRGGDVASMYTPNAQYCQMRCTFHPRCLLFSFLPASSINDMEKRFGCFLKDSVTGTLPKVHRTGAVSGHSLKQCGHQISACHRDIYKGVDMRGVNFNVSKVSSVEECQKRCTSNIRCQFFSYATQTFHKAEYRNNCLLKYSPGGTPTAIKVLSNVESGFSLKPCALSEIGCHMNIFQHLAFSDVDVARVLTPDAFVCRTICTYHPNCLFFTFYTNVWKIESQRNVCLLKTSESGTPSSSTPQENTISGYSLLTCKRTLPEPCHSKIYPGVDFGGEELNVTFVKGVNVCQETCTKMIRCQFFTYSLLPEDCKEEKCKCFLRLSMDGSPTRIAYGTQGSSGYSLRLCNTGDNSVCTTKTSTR
Chain of Plasma kallikrein (P03952 391-638 limits assumed): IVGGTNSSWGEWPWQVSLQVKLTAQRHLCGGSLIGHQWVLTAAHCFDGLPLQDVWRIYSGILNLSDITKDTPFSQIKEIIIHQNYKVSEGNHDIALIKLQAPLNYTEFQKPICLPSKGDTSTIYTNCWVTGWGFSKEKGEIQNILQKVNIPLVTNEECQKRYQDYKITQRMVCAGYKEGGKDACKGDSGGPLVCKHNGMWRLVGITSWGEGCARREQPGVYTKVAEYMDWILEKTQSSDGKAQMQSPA

Structure (SMILES): CC(C)C[C@@H]1NC(=O)CNC(=O)[C@H](CC(N)=O)NC(=O)[C@H](CCCNC(=N)N)NC(=O)[C@H]([C@@H](C)O)NC(=O)[C@@H]2CSSC[C@@H]3NC(=O)[C@H]([C@@H](C)O)NC(=O)CNC(=O)CNC(=O)[C@H](C(C)C)NC(=O)[C@@H]4CSSC[C@H](NC(=O)[C@H]([C@@H](C)O)NC(=O)[C@H](CSSC[C@H](NC(=O)[C@H](C(C)C)NC(=O)[C@@H]5CCCN5C1=O)C(=O)NCC(=O)N[C@@H](CCC(=O)O)C(=O)N[C@@H]([C@@H](C)O)C(=O)N4)NC(=O)CNC(=O)[C@@H]1CCCN1C(=O)[C@H]([C@@H](C)O)NC(=O)[C@H](CC(N)=O)NC3=O)C(=O)N[C@@H](CO)C(=O)N[C@@H](Cc1c[nH]c3ccccc13)C(=O)N1CCC[C@H]1C(=O)N[C@@H](C(C)C)C(=O)N2
Ratio Ki (Homo sapiens [1]): 100 to 300
Ratio Ki (Homo sapiens [2]): 100 to 300
Ratio Ki (Homo sapiens [3]): 100 to 300

Structure (SMILES): CN(c1ccc(-c2ccc(-c3cn[nH]c3)cc2O)nn1)C1CC(C)(C)NC(C)(C)C1
EC50 [5]: 5 nM

Now from value to compound:

EC50 (80S Ribosome): 2200 nM
Structure (SMILES): COc1ccc(CCC(=O)N(c2nccc3c2CC=CC3)[C@@H]2CCCNC2)cc1

Kd [4]: 370 nM
Structure (SMILES): C[C@@H]1NC(=O)[C@H](CCCNC(=N)N)NC(=O)[C@H](Cc2c[nH]c3ccccc23)NC(=O)[C@@H]2CCCN2C(=O)[C@H](N)CSCc2cccc(c2)CSC[C@@H](C(=O)O)NC(=O)[C@H](Cc2ccccc2)NC(=O)[C@@H]2CCCN2C(=O)[C@H](CC(N)=O)NC(=O)[C@H]([C@@H](C)O)NC1=O

Kd (Plasma kallikrein): 20 nM
Structure (SMILES): CC(C)C[C@@H]1NC(=O)[C@H](C)NC(=O)[C@H](CCC(=O)O)NC(=O)[C@H](CC(=O)O)NC(=O)[C@H](C)NC(=O)[C@@H]2CCCN2C(=O)[C@@H]2CSCc3cc(cc(c3)CSC[C@@H](C(=O)NCC(=O)O)NC1=O)CSC[C@H](NC(=O)[C@H](C)N)C(=O)N[C@@H](CO)C(=O)N[C@@H](CC(=O)O)C(=O)N[C@@H](CCCNC(=N)N)C(=O)N[C@@H](Cc1ccccc1)C(=O)N[C@@H](CCCNC(=N)N)C(=O)N[C@@H](CC(N)=O)C(=O)N2 (H-ACSDRFRNCPADEALCG-OH; linker 2-9-16 via TBMB)

Source: ChEMBL document CHEMBL4382194, “New Modalities, Technologies, and Partnerships in Probe and Lead Generation: Enabling a Mode-of-Action Centric Paradigm” (J Med Chem, 2018)
